Source: patent publication US12065428B2, “Anti-viral compounds” (Aligos Therapeutics, Inc., priority 2021, dated 2024)
Like-named read-outs stand apart in the source and are kept apart here.

Legend:
[1] = tested on: human beta-coronavirus OC43; assay: OC43 coronavirus assay in HeLa cells (cytopathic effect, cell-titer-glo); assay type: cell-based
[2] = Cytotoxicity plates without OC43 virus in HeLa cells; assay type: cell-based; conditions: human, HeLa cells (uninfected), class symbols
Protocol: The human beta-coronavirus OC43 was purchased from ATCC (Manassas, VA) and propagated using HCT-8 human colorectal epithelial cells (ATCC). HeLa human cervical epithelial cells (ATCC) were used as susceptible host cell lines and were cultured using EMEM media, supplemented with 10% fetal bovine serum (FBS), 1% (v/v) penicillin/streptomycin (P/S), 1% (v/v) HEPES and 1% (v/v) cellgro Glutagro™ supplement (all Corning, Manassas, VA) at 37° C. For the OC43 antiviral assay, 1.5×10^4 HeLa cells per well were plated in 100 μL complete media in white 96-well plates with clear bottoms at 37° C. for up to 24 h to facilitate attachment and allow cells to recover from seeding stresses. Next day, the cell culture medium was removed. Serially diluted compounds in 100 μL assay media (EMEM, 2% FBS, 1% P/S, 1% cellgro Glutagro™ supplement, 1% HEPES) were added to the cells and incubated for 4H at 37° C. in a humidified 5% CO2 incubator. 100 μL of OC43 virus stock was diluted to a concentration known to produce optimal cytopathic effect, inducing 80-90% reduction in cell viability. 96-well plates were incubated for 6 (HeLa) days at 33° C.; each plate contains uninfected control wells as well as virus-infected wells that were not treated with compound. Cytotoxicity plates without the addition of OC43 virus were carried out in parallel. At the end of the incubation period, 100 μL cell culture supernatant was replaced with 100 μL cell-titer-glo reagent (Promega, Madison, WI) and incubated for at least 10 min at rt prior to measuring luminescence. Luminescence was measured on a Perkin Elmer (Waltham, MA) Envision plate reader. Antiviral % inhibition was calculated as follows: [(Compound treated cells infected sample)−(no compound infected control)]/[(Uninfected control)−(no compound infected control)]*100; Using GraphPad (San Diego, CA) prism software version 8.3.1, the antiviral dose-response plot was generated as a sigmoidal fit, log(inhibitor) vs response-variable slope (four parameters) model and the EC50 was calculated which is the predicted compound concentration corresponding to a 50% inhibition of the viral cytopathic effect.

[3] = tested on: SARS-CoV-2-GHB-03021/2020; assay: microbe, parasite or virus in culture; assay type: cell-based
[4] = molecular target: T1, SARS-Cov-2 3CLpro (Severe acute respiratory syndrome coronavirus 2, UniProt P0DTD1); assay: SARS-Cov-2 3CLpro and HRV3C duplex assay (SAMDI-MS): 3CLpro; assay type: biochemical
T1 construct: SARS-Cov-2 3CLpro and HRV3C Duplex Assay

[5] = molecular target: T2, human cathepsin L (Homo sapiens, UniProt P07711); assay: Cathepsin L assay (Z-FR-AMC fluorescence); assay type: biochemical; conditions: 10 pM human cathepsin L, 30 mins preincubation; class symbols
T2 construct: purchased R&D Systems
T2 sequence (P07711 114-333): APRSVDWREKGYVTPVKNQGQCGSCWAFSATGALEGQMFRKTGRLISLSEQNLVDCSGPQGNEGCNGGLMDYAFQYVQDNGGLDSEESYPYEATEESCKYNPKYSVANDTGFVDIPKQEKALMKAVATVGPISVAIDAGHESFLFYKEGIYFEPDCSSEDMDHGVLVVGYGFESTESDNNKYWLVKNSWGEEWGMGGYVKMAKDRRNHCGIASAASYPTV
Protocol: For the cathepsin L assay, 10 pM of human cathepsin L (R&D Systems; Minneapolis, MN) was preincubated for 30 mins with test compounds. Reactions were initiated by the addition of a peptide substrate Z-FR-AMC (final concentration 2 μM, Anaspec; Fremont, CA). Fluorescence was measured at 2-minute intervals for 30 mins using a 355/460 excitation/emission filter module on an Envision plate reader (Perkin Elmer; Waltham, MA). The IC50 values were calculated for each assay by fitting the curves using a four-parameter equation in GraphPad Prism.

[6] = molecular target: T3, HRV3C (Human rhinovirus 14, UniProt P03303); assay: biochemical; conditions: HRV3C, duplex assay, 30 mins preincubation; class symbols; read-out: HRV IC50
T3 construct: SARS-Cov-2 3CLpro and HRV3C Duplex Assay
T3 sequence (P03303 1538-1719): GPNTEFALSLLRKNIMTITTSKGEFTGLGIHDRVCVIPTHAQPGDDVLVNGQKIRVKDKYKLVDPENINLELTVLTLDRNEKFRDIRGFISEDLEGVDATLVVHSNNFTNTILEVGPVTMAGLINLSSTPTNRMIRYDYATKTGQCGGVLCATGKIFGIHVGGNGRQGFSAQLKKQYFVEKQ

[7] = Betacoronavirus 1, 144 h, OC43 in HeLa cells, 6 days at 33° C., class symbols, read-out: EC50
[8] = 3CLpro, duplex assay, 30 mins preincubation, class symbols, read-out: SARS-Cov-2 IC50
[9] = Severe acute respiratory syndrome coronavirus 2, Vero C1008, 96 h; read-out: VeroE6 + CP (EC50)

Compound	EC50 [1, 7]	CC50 at 6 days [2]	EC50 ([3]; Severe acute respiratory syndrome coronavirus 2, Vero C1008, 96 h, read-out: VeroE6 + CP (EC50))	IC50 [4, 8]	IC50 [5]	EC50 [3, 9]	IC50 [6]	EC50 ([1]; Betacoronavirus 1, OC43, HeLa)	IC50 [4]
O=C(NC1CC1)C(=O)[C@H](C[C@@H]1CCNC1=O)NC(=O)[C@@H]1CC2(CCN1C(=O)[C@H]1C[C@@]13CCCc1ccccc13)CC2 (relative stereo) [Compound 34A, (S)—N—((S)-4-(cyclopropylamino)-3,4-dioxo-1-((S)-2-oxopyrrolidin-3-yl)butan-2-yl)-6-((1S*,2S*)-3′,4′-dihydro-2′H-spiro[cyclopropane-1,1′-naphthalene]-2-carbonyl)-6-azaspiro[2.5]octane-5-carboxamide]	100 to 1000 nM	≥ 100000 nM	1000 to 10000 nM	200 to 2000 nM	1000 to 10000 nM	–	–	–	–
O=C(NC1CC1)C(=O)[C@H](C[C@@H]1CCNC1=O)NC(=O)[C@@H]1CC2(CCN1C(=O)[C@@H]1C[C@]13CCCc1ccccc13)CC2 (relative stereo) [Compound 34B]	100 to 1000 nM	10000 to 100000 nM	–	20 to 200 nM	1000 to 10000 nM	< 1000 nM	–	–	–
Cn1ncc2c1CC(C(=O)N1CCC3(CC3)C[C@H]1C(=O)NC(C[C@@H]1CCNC1=O)C(=O)C(=O)NC1CC1)CC2 (stereo partly drawn) [Compound 14, (5S)—N-(4-(cyclopropylamino)-3,4-dioxo-1-((S)-2-oxopyrrolidin-3-yl)butan-2-yl)-6-(1-methyl-4,5,6,7-tetrahydro-1H-indazole-6-carbonyl)-6-azaspiro[2.5]octane-5-carboxamide]	–	≥ 100000 nM	–	20 to 200 nM	≥ 10000 nM	10000 to 100000 nM	200 to 2000 nM	> 10000 nM	–
Cc1ccc2cc(C(=O)N3CCC4(CC4)C[C@H]3C(=O)N[C@@H](C[C@@H]3CCNC3=O)C(=O)C(=O)NC3CC3)sc2c1 [Compound 15, (3S)—N-cyclopropyl-3-{[(5S)-6-(6-methyl-1-benzothiophene-2-carbonyl)-6-azaspiro[2.5]octan-5-yl]formamido}-2-oxo-4-[(3S)-2-oxopyrrolidin-3-yl]butanamide]	100 to 1000 nM	≥ 100000 nM	–	< 20 nM	1000 to 10000 nM	< 1000 nM	2000 to 20000 nM	–	–
O=C(NC1CC1)C(=O)[C@H](C[C@@H]1CCNC1=O)NC(=O)[C@@H]1CC2(CCN1C(=O)c1ccc3c(c1)OCO3)CC2 [Compound 16, (3S)-3-{[(5S)-6-(2H-1,3-benzodioxole-5-carbonyl)-6-azaspiro[2.5]octan-5-yl]formamido}-N-cyclopropyl-2-oxo-4-[(3S)-2-oxopyrrolidin-3-yl]butanamide]	1000 to 10000 nM	≥ 100000 nM	–	–	≥ 10000 nM	1000 to 10000 nM	2000 to 20000 nM	–	20 to 200 nM
Cn1nc(C(=O)N2CCC3(CC3)C[C@H]2C(=O)NC(C[C@@H]2CCNC2=O)C(=O)C(=O)NC2CC2)cc1-c1ccccc1 (stereo partly drawn) [Compound 17, (5S)—N-(4-(cyclopropylamino)-3,4-dioxo-1-((S)-2-oxopyrrolidin-3-yl)butan-2-yl)-6-(1-methyl-5-phenyl-1H-pyrazole-3-carbonyl)-6-azaspiro[2.5]octane-5-carboxamide]	1000 to 10000 nM	≥ 100000 nM	–	200 to 2000 nM	≥ 10000 nM	1000 to 10000 nM	2000 to 20000 nM	–	–
O=C(NC1CC1)C(=O)C(C[C@@H]1CCNC1=O)NC(=O)[C@@H]1CC2(CCN1C(=O)c1noc(-c3ccccc3)n1)CC2 (stereo partly drawn) [Compound 18, N-cyclopropyl-2-oxo-4-[(3S)-2-oxopyrrolidin-3-yl]-3-{[(5S)-6-(5-phenyl-1,2,4-oxadiazole-3-carbonyl)-6-azaspiro[2.5]octan-5-yl]formamido}butanamide]	1000 to 10000 nM	≥ 100000 nM	–	20 to 200 nM	≥ 10000 nM	1000 to 10000 nM	200 to 2000 nM	–	–
